Test results taken from the NIST ThermoML archive (doi:10.1016/j.jct.2007.10.010).

Key:
[1] = 101 kPa, Liquid
[2] = refractive index (Na D-line) (dimensionless); details: 298.15 K; 101.33 kPa; Liquid; Standard Abbe refractometry
[3] = xn = mol fraction of the nth substance listed; details: 101 kPa, Liquid

Cc1cc(C)cc(C)c1 [1,3,5-trimethylbenzene]
[1]
Details	mass density [kg/m3]
298.15 K	861.13
308.15 K	852.89
318.15 K	844.78
328.15 K	836.65

Details	refractive index
[2]	1.4967

Cc1cc(C)cc(C)c1 [1,3,5-trimethylbenzene] + CCCCCCCC
[3]
Details	mass density [kg/m3]
298.15 K, x2 = 0	861.13
298.15 K, x2 = 0.08503	845.14
298.15 K, x2 = 0.1479	833.6
298.15 K, x2 = 0.2132	821.88
298.15 K, x2 = 0.2717	811.56
298.15 K, x2 = 0.3177	803.61
298.15 K, x2 = 0.3864	791.95
298.15 K, x2 = 0.463	779.23
298.15 K, x2 = 0.5407	766.69
298.15 K, x2 = 0.6037	756.73
298.15 K, x2 = 0.6725	746.08
298.15 K, x2 = 0.723	738.44
298.15 K, x2 = 0.7969	727.45
298.15 K, x2 = 0.8623	717.95
298.15 K, x2 = 0.9422	706.63
308.15 K, x2 = 0	852.89
308.15 K, x2 = 0.08503	836.88
308.15 K, x2 = 0.1386	827.02
308.15 K, x2 = 0.2132	813.6
308.15 K, x2 = 0.2717	803.29
308.15 K, x2 = 0.3177	795.34
308.15 K, x2 = 0.3864	783.69
308.15 K, x2 = 0.463	770.99
308.15 K, x2 = 0.5407	758.45
308.15 K, x2 = 0.6037	748.49
308.15 K, x2 = 0.6725	737.87
308.15 K, x2 = 0.723	730.2
308.15 K, x2 = 0.7969	719.24
308.15 K, x2 = 0.8623	709.74
308.15 K, x2 = 0.9422	698.43
318.15 K, x2 = 0	844.78
318.15 K, x2 = 0.06984	831.58
318.15 K, x2 = 0.1363	819.34
318.15 K, x2 = 0.2001	807.84
318.15 K, x2 = 0.2695	795.59
318.15 K, x2 = 0.3464	782.35
318.15 K, x2 = 0.398	773.67
318.15 K, x2 = 0.4464	765.65
318.15 K, x2 = 0.536	751.14
318.15 K, x2 = 0.5995	741.12
318.15 K, x2 = 0.6643	731.1
318.15 K, x2 = 0.7301	721.16
318.15 K, x2 = 0.7839	713.18
318.15 K, x2 = 0.8537	703.03
318.15 K, x2 = 0.9507	689.3
328.15 K, x2 = 0	836.65
328.15 K, x2 = 0.06984	823.48
328.15 K, x2 = 0.1363	811.25
328.15 K, x2 = 0.2001	799.75
328.15 K, x2 = 0.2677	787.84
328.15 K, x2 = 0.3464	774.3
328.15 K, x2 = 0.398	765.62
328.15 K, x2 = 0.4622	755.02
328.15 K, x2 = 0.5368	743
328.15 K, x2 = 0.6022	732.7
328.15 K, x2 = 0.6552	724.51
328.15 K, x2 = 0.7389	711.86
328.15 K, x2 = 0.7839	705.21
328.15 K, x2 = 0.8537	695.07
328.15 K, x2 = 0.9507	681.35

Cc1cccc(C)c1 [1,3-dimethylbenzene]
[1]
Details	mass density [kg/m3]
298.15 K	859.85
308.15 K	851.2
318.15 K	842.66
328.15 K	834.13

Details	refractive index
[2]	1.4945

Cc1cccc(C)c1 [1,3-dimethylbenzene] + CCCCCCCC
[3]
Details	mass density [kg/m3]
298.15 K, x2 = 0	859.85
298.15 K, x2 = 0.06642	845.86
298.15 K, x2 = 0.1397	831.1
298.15 K, x2 = 0.2052	818.49
298.15 K, x2 = 0.276	805.42
298.15 K, x2 = 0.323	797.05
298.15 K, x2 = 0.3982	784.13
298.15 K, x2 = 0.4618	773.65
298.15 K, x2 = 0.5432	760.8
298.15 K, x2 = 0.5993	752.28
298.15 K, x2 = 0.6755	741.14
298.15 K, x2 = 0.7284	733.68
298.15 K, x2 = 0.7851	725.91
298.15 K, x2 = 0.8583	716.27
298.15 K, x2 = 0.925	707.79
308.15 K, x2 = 0	851.2
308.15 K, x2 = 0.06642	837.23
308.15 K, x2 = 0.1397	822.5
308.15 K, x2 = 0.2052	809.92
308.15 K, x2 = 0.276	796.89
308.15 K, x2 = 0.323	788.53
308.15 K, x2 = 0.3954	776.12
308.15 K, x2 = 0.4618	765.21
308.15 K, x2 = 0.5432	752.4
308.15 K, x2 = 0.5993	743.9
308.15 K, x2 = 0.6755	732.79
308.15 K, x2 = 0.7284	725.36
308.15 K, x2 = 0.7851	717.64
308.15 K, x2 = 0.8583	708.01
308.15 K, x2 = 0.925	699.57
318.15 K, x2 = 0	842.66
318.15 K, x2 = 0.0687	828.23
318.15 K, x2 = 0.1168	818.54
318.15 K, x2 = 0.207	801.13
318.15 K, x2 = 0.2651	790.45
318.15 K, x2 = 0.3289	779.13
318.15 K, x2 = 0.4087	765.6
318.15 K, x2 = 0.4672	756.08
318.15 K, x2 = 0.5321	745.88
318.15 K, x2 = 0.6067	734.61
318.15 K, x2 = 0.6634	726.39
318.15 K, x2 = 0.7288	717.2
318.15 K, x2 = 0.7923	708.59
318.15 K, x2 = 0.8634	699.33
318.15 K, x2 = 0.9502	688.48
328.15 K, x2 = 0	834.13
328.15 K, x2 = 0.0687	819.75
328.15 K, x2 = 0.1168	810.1
328.15 K, x2 = 0.207	792.73
328.15 K, x2 = 0.2651	782.09
328.15 K, x2 = 0.3289	770.81
328.15 K, x2 = 0.4087	757.32
328.15 K, x2 = 0.4672	747.81
328.15 K, x2 = 0.5287	738.2
328.15 K, x2 = 0.6067	726.45
328.15 K, x2 = 0.6634	718.26
328.15 K, x2 = 0.7288	709.11
328.15 K, x2 = 0.7923	700.55
328.15 K, x2 = 0.8634	691.33
328.15 K, x2 = 0.9502	680.52

c1ccccc1 [benzene]
[1]
Details	mass density [kg/m3]
298.15 K	873.62
308.15 K	863.01
318.15 K	852.16
328.15 K	841.49

Details	refractive index
[2]	1.4979

c1ccccc1 [benzene] + CCCCCCCC
[3], x2 = 0
Details	mass density [kg/m3]
298.15 K	873.62
308.15 K	863.01
318.15 K	852.16
328.15 K	841.49
